target: hCereblon(M1-L442)_hDDB1(M1-H1140) (Homo sapiens (Human), UniProt Q96SW2); assay: Fluorescence direct binding (tryptophan fluorescence titration); details: 20° C., excitation 280 nm, emission 340 nm, 50 mM Hepes 7.4 200 mM NaCl; read-out: Fluorescence h-Cereblon_DDB1 Mean Kd_EQ
Sequence (Q96SW2 whole entry, looked up): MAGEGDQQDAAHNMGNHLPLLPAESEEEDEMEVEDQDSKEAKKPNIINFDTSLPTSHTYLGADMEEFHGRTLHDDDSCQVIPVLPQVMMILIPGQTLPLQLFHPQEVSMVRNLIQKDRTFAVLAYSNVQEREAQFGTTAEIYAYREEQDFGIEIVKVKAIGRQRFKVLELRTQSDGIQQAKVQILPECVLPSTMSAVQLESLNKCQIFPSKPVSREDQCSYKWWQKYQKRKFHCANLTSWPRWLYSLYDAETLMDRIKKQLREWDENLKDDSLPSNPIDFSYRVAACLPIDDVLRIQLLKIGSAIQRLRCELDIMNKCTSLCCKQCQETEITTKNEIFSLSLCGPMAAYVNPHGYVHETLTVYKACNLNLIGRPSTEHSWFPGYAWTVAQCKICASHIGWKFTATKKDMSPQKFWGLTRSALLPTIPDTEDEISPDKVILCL
Sequence (Q16531 whole entry partner, looked up): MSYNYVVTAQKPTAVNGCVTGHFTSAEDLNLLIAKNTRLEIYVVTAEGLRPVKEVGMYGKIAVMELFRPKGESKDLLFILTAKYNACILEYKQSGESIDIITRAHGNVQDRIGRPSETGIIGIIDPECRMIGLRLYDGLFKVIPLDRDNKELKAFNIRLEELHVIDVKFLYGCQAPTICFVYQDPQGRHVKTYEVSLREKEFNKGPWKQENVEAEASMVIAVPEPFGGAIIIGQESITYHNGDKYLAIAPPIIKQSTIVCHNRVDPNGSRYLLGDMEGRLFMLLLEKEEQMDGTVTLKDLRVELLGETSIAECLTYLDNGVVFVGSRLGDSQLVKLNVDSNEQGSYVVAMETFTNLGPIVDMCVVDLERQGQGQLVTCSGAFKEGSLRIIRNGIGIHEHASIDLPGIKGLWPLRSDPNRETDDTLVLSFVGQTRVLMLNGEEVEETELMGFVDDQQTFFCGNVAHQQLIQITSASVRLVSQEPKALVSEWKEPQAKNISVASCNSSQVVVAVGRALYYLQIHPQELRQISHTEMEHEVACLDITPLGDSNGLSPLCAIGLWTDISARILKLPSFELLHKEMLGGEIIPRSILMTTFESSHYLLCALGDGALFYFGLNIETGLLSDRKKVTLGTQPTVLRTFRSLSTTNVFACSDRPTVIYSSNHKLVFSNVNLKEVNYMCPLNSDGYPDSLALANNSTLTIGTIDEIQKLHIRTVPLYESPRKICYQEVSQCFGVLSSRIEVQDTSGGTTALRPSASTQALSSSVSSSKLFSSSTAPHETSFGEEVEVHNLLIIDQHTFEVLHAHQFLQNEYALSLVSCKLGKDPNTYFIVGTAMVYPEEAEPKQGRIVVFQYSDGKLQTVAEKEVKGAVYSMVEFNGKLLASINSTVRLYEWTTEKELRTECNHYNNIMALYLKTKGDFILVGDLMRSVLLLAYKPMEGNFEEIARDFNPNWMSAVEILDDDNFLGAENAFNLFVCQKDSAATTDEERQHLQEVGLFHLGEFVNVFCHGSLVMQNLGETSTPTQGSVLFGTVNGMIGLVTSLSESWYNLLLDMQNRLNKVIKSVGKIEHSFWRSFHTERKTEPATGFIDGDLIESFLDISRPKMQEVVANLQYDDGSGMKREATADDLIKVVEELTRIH
Procedure: Fluorescence Direct Binding Protocol
Determination of the affinities of compounds to protein containing one or more tryptophan is measurable by monitoring the fluorescence emission in direct mode. The measurements, depending on the protein available amounts, were performed either manually in a cuvette on ISS-PCI photon counting spectrofluorometer or automatically in well plates on a fluorescence plate reader device. Fluorescence titrations were performed at 20° C. in the chosen binding assay buffer by using a defined constant protein concentration against ligand concentration variations. Small aliquots of known ligand concentration solubilized in DMSO were added and the fluorescence, excited at 280 nm, was recorded at 340 nm.

**Q.** For `O=C1CC2(CCN(c3ccc([N+](=O)[O-])cn3)CC2)C(=O)N1` [Example 70, 8-(5-nitropyridin-2-yl)-2,8-diazaspiro[4.5] decane-1,3-dione], which Kd is on record?
**A.** 23 nM

**Q.** With `O=C1CCC2(CCN(C(=O)c3ccc4ncoc4c3)C2)C(=O)N1` (stereo not drawn) [Example 46, 2-(benzo[d]oxazole-6-carbonyl)-2,7-diazaspiro[4.5] decane-6,8-dione] as the molecule, how does the Kd read?
**A.** 10 nM

**Q.** Which Kd does the source give for `CC(=O)Nc1nc2cc(C(=O)N3CCC4(CCC(=O)NC4=O)C3)ccc2s1` (stereo not drawn) [Example 50, N-(5-(6,8-dioxo-2,7-diazaspiro[4.5]decane-2-carbonyl)benzo[d]thiazol-2-yl)acetamide] here?
**A.** 45 nM

**Q.** How did the Kd turn out when `O=C1NC(=O)C2(CCN(c3ccc([N+](=O)[O-])cn3)CC2)N1` [Example 69, 8-(5-nitropyridin-2-yl)-1,3,8-triazaspiro[4.5] decane-2,4-dione] was run?
**A.** 7 nM

**Q.** With `O=C1CCC2(CCN(c3nc4cc([N+](=O)[O-])ccc4[nH]3)C2)C(=O)N1` (single isomer, unassigned) [Example 34, 2-(5-nitro-1H-benzo[d]imidazol-2-yl)-2,7-diazaspiro[4.5] decane-6,8-dione] as the molecule, how does the Kd read?
**A.** 5 nM

**Q.** `O=C1CCC2(CCN(C(=O)c3ccc4c(c3)CCN4)C2)C(=O)N1` (stereo not drawn) [Example 47, 2-(indoline-5-carbonyl)-2,7-diazaspiro[4.5] decane-6,8-dione] was tested. Which Kd did it give?
**A.** 4 nM

**Q.** How did the Kd turn out when `CC(C)(C)OC(=O)Nc1nc2cc(C(=O)N3CCC4(CCC(=O)NC4=O)C3)ccc2s1` (stereo not drawn) [Example 53, tert-butyl (5-(6,8-dioxo-2,7-diazaspiro[4.5]decane-2-carbonyl)benzo[d]thiazol-2-yl)carbamate] was run?
**A.** 6 nM

**Q.** How did the Kd turn out when `COC(=O)c1cnc(N2CCC3(CCC(=O)NC3=O)C2)s1` (stereo not drawn) [Example 23, methyl 2-(6,8-dioxo-2,7-diazaspiro[4.5]decan-2-yl)thiazole-5-carboxylate] was run?
**A.** 8 nM

**Q.** With `CC(C)(C)OC(=O)Nc1nc2ccc(C(=O)N3CCC4(CCC(=O)NC4=O)C3)cc2s1` (stereo not drawn) [Example 54, tert-butyl (6-(6,8-dioxo-2,7-diazaspiro[4.5]decane-2-carbonyl)benzo[d]thiazol-2-yl)carbamate] as the molecule, how does the Kd read?
**A.** 4 nM

**Q.** For `CC(=O)Nc1cccc(C(=O)N2CCC3(CCC(=O)NC3=O)C2)c1` (stereo not drawn) [Example 37, N-(3-(6,8-dioxo-2,7-diazaspiro[4.5]decane-2-carbonyl)phenyl)acetamide], which Kd is on record?
**A.** 6 nM

**Q.** `O=C1NC(=O)C2(CCN(C(=O)c3ccc4scnc4c3)CC2)N1` [Example 81, 8-(benzo[d]thiazole-5-carbonyl)-1,3,8-triazaspiro[4.5] decane-2,4-dione] was tested. Which Kd did it give?
**A.** 6 nM

**Q.** For `COC(=O)c1ccc2nc(N3CCC4(CCC(=O)NC4=O)C3)sc2c1` (stereo not drawn) [Example 21, methyl 2-(6,8-dioxo-2,7-diazaspiro [4.5]decan-2-yl)benzo[d]thiazole-6-carboxylate], which Kd is on record?
**A.** 8 nM

**Q.** How did the Kd turn out when `O=C1CCC2(CCN(c3ccc4ccccc4n3)C2)C(=O)N1` (stereo not drawn) [Example 15, 2-(quinolin-2-yl)-2,7-diazaspiro[4.5] decane-6,8-dione] was run?
**A.** 6 nM

**Q.** Which Kd does the source give for `O=C1NC(=O)C2(CCN(C(=O)c3cnn4ccccc34)CC2)N1` [Example 67, 8-(pyrazolo[1,5-a]pyridine-3-carbonyl)-1,3,8-triazaspiro[4.5] decane-2,4-dione] here?
**A.** < 1 nM

**Q.** Which Kd does the source give for `CC(=O)Nc1nc2ccc(C(=O)N3CCC4(CCC(=O)NC4=O)C3)cc2s1` (stereo not drawn) [Example 51, N-(6-(6,8-dioxo-2,7-diazaspiro[4.5]decane-2-carbonyl)benzo[d]thiazol-2-yl)acetamide] here?
**A.** 94 nM

**Q.** For `CC(=O)N1CCc2ccc(C(=O)N3CCC4(CCC(=O)NC4=O)C3)cc21` (stereo not drawn) [Example 42, 2-(1-acetylindoline-6-carbonyl)-2,7-diazaspiro[4.5] decane-6,8-dione], which Kd is on record?
**A.** 8 nM

**Q.** With `COC(=O)c1ccc(N2CCC3(CCC(=O)NC3=O)C2)nc1` (stereo not drawn) [Example 6, methyl 6-(6,8-dioxo-2,7-diazaspiro[4.5]decan-2-yl) nicotinate] as the molecule, how does the Kd read?
**A.** < 1 nM

**Q.** `Nc1nc2ccc(C(=O)N3CCC4(CCC(=O)NC4=O)C3)cc2s1` (stereo not drawn) [Example 55, 2-(2-aminobenzo [d]thiazole-6-carbonyl)-2,7-diazaspiro [4.5]decane-6,8-dione] was tested. Which Kd did it give?
**A.** 26 nM

**Q.** How did the Kd turn out when `O=C1CCC2(CCN(C(=O)c3cnn4ccccc34)C2)C(=O)N1` (stereo not drawn) [Example 45, 2-(pyrazolo[1,5-a]pyridine-3-carbonyl)-2,7-diazaspiro[4.5] decane-6,8-dione] was run?
**A.** < 1 nM

**Q.** Which Kd does the source give for `Cc1sc2c(c1C)C(c1ccc(Cl)cc1)=NC(CC(=O)NCCCCCCCC(=O)Nc1cccc(C(=O)N3CCC4(CCC(=O)NC4=O)C3)c1)c1nnc(C)n1-2` (stereo in doubt) [Example 57, 8-(2-((R)-4-(4-chlorophenyl)-2,3,9-trimethyl-6H-thieno[3,2-f] [1,2,4]triazolo [4,3-a] [1,4]diazepin-6-yl)acetamido)-N-(3-(6,8-dioxo-2,7-diazaspiro[4.5]decane-2-carbonyl)phenyl) octanamide] here?
**A.** 106 nM

**Q.** Which Kd does the source give for `O=C1NC(=O)C2(CCN(c3ccc([N+](=O)[O-])cc3)CC2)N1` [Example 72, 8-(4-nitrophenyl)-1,3,8-triazaspiro[4.5] decane-2,4-dione] here?
**A.** < 1 nM

**Q.** How did the Kd turn out when `CC(=O)N1CCc2c(C(=O)N3CCC4(CCC(=O)NC4=O)C3)cccc21` (stereo not drawn) [Example 35, 2-(1-acetylindoline-4-carbonyl)-2,7-diazaspiro[4.5] decane-6,8-dione] was run?
**A.** < 1 nM

**Q.** With `O=C1CCC2(CCN(c3nc4cc([N+](=O)[O-])ccc4[nH]3)C2)C(=O)N1` (stereo not drawn) [Example 9, 2-(5-nitro-1H-benzo[d]imidazol-2-yl)-2,7-diazaspiro [4.5]decane-6,8-dione] as the molecule, how does the Kd read?
**A.** 8 nM

**Q.** How did the Kd turn out when `COC(=O)c1ccc(N2CCC3(CC2)CC(=O)NC3=O)nc1` [Example 74, methyl 6-(1,3-dioxo-2,8-diazaspiro[4.5]decan-8-yl)nicotinate] was run?
**A.** 11 nM

**Q.** Which Kd does the source give for `O=C1NC(=O)C2(CCN(C(=O)c3coc4ccccc34)CC2)N1` [Example 66, 8-(benzofuran-3-carbonyl)-1,3,8-triazaspiro[4.5] decane-2,4-dione] here?
**A.** 1 nM

**Q.** Which Kd does the source give for `O=C1CCC2(CCN(C(=O)c3cccc4c3CC(=O)N4)C2)C(=O)N1` (stereo not drawn) [Example 27, 2-(2-oxoindoline-4-carbonyl)-2,7-diazaspiro[4.5] decane-6,8-dione] here?
**A.** 47 nM

**Q.** For `Cn1c(N2CCC3(CCC(=O)NC3=O)C2)nc2ccccc21` (stereo not drawn) [Example 19, 2-(1-methyl-1H-benzo[d]imidazol-2-yl)-2,7-diazaspiro[4.5] decane-6,8-dione], which Kd is on record?
**A.** 30 nM

**Q.** For `O=C1CCC2(CCN(C(=O)c3ccccc3)C2)C(=O)N1` (stereo not drawn) [Example 36, 2-benzoyl-2,7-diazaspiro[4.5] decane-6,8-dione], which Kd is on record?
**A.** < 1 nM

**Q.** `O=C1CCC2(CCN(C(=O)c3cccc4c3CCN4)C2)C(=O)N1` (stereo not drawn) [Example 40, 2-(indoline-4-carbonyl)-2,7-diazaspiro[4.5] decane-6,8-dione] was tested. Which Kd did it give?
**A.** 6 nM

**Q.** For `O=C1CCC2(CCN(c3nc4ccccc4s3)C2)C(=O)N1` (stereo not drawn) [Example 12, 2-(benzo[d]thiazol-2-yl)-2,7-diazaspiro [4.5]decane-6,8-dione], which Kd is on record?
**A.** 1 nM

**Q.** With `COC(=O)c1cccc(N2CCC3(CCC(=O)NC3=O)C2)n1` (stereo not drawn) [Example 32, methyl 6-(6,8-dioxo-2,7diazaspiro[4.5]decan-2-yl)picolinate] as the molecule, how does the Kd read?
**A.** 1 nM

**Q.** Which Kd does the source give for `O=C1NC(=O)C2(CCN(C(=O)c3ccccc3)CC2)N1` [Example 60, 8-benzoyl-1,3,8-triazaspiro[4.5]decane-2,4-dione] here?
**A.** 2 nM

**Q.** For `O=C1CCC2(CCN(C(=O)c3cccc4[nH]ncc34)C2)C(=O)N1` (stereo not drawn) [Example 38, 2-(1H-indazole-4-carbonyl)-2,7-diazaspiro[4.5] decane-6,8-dione], which Kd is on record?
**A.** 84 nM
